For one experiment, the target named is T1, TLR8 (Homo sapiens, UniProt Q9NR97).
T1 sequence (Q9NR97 27-1041): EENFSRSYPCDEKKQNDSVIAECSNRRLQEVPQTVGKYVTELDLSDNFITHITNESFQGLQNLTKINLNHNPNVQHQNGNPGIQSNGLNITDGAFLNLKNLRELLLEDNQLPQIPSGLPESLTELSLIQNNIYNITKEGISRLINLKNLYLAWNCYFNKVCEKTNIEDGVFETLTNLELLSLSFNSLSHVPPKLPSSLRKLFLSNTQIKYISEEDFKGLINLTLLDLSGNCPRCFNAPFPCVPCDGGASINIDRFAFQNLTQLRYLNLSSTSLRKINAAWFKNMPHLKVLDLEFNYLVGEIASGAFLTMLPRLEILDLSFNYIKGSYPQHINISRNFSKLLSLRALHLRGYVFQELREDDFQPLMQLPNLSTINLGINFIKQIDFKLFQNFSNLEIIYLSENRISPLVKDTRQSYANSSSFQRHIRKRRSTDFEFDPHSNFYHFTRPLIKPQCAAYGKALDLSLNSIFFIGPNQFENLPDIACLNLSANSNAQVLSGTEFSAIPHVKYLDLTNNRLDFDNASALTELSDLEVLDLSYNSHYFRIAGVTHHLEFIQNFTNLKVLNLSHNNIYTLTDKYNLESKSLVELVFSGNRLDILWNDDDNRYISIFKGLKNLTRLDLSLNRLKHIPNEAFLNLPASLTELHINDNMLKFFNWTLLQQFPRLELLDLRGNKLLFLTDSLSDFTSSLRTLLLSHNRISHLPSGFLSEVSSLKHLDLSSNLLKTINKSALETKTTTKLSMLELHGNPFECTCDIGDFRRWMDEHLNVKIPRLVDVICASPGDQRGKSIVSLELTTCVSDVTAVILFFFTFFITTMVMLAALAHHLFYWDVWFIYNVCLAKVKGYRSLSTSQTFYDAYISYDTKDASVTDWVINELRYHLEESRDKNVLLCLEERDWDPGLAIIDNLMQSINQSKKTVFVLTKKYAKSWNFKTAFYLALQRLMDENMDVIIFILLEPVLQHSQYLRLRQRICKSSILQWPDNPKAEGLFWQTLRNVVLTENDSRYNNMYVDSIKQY
In words: PBMC assay for TLR8 (TNFα in supernatants by ELISA). The format is cell-based. Particulars: human PBMCs incubated with compound overnight, MC50 = concentration at which 50% of the maximum induction is seen. More on the design: Peripheral blood mononuclear cells (PBMCs) from human blood were isolated; endogenous in cells; host or cells: human PBMCs. The method, then:
(§1) Peripheral blood mononuclear cells (PBMCs) from human blood were isolated using BD Vacutainer Cell Preparation Tubes with sodium citrate. Cells were incubated with compound overnight. TLR8 activity was assayed by measuring the amount of TNFα in supernatants by ELISA. TLR7 activity was assayed by measuring the amount of IFNα in supernatants by ELISA (R&D Systems). […] The results of this assay are shown below in Tables 2 and 3.
(§2) MC50 numbers are represented as factors of ten, for example, + indicates an MC50 value of ×10^4, or a value in the tens of thousands of nanomolar (nM range); ++ indicates an MC50 value of ×10^3, or a value in the thousands; +++ indicates an MC50 value of ×10^2, or a value in the hundreds; and ++++ indicates an MC50 value of ×10^1 or 10°, or a value in the tens or ones.
A general note: ELISA stands for enzyme-linked immunosorbent assay.

For the next experiment, the target named is T2, TLR7 (Homo sapiens, UniProt Q9NYK1).
T2 sequence (Q9NYK1 27-1049): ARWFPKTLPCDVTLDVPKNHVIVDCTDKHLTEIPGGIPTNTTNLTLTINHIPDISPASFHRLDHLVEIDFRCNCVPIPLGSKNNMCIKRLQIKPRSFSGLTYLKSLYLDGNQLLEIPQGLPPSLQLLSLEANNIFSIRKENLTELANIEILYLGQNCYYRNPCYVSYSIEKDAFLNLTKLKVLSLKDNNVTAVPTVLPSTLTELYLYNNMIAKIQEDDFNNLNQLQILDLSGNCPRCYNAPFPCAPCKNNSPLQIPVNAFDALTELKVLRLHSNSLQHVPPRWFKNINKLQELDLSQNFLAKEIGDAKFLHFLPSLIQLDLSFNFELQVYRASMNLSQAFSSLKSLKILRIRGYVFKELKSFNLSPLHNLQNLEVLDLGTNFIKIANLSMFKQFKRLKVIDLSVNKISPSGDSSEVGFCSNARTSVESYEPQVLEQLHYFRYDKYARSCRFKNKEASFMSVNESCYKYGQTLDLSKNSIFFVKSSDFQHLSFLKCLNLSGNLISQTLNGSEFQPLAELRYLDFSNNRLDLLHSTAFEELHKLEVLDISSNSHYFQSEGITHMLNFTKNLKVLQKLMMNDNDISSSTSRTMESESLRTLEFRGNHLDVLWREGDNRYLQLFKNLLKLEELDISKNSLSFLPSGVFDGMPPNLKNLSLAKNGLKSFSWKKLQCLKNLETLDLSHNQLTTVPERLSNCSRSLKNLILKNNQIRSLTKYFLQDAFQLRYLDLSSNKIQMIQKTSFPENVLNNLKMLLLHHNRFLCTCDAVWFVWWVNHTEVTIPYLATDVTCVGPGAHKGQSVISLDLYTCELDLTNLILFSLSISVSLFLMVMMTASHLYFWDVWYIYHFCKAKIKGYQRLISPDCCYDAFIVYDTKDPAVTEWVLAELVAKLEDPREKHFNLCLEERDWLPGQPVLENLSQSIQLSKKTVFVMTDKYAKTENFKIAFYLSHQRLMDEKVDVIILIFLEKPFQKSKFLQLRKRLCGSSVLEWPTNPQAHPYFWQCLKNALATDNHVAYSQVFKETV
In words: PBMC assay for TLR7 (IFNα in supernatants by ELISA). The format is cell-based. The conditions noted are these: human PBMCs incubated with compound overnight, MC50 = concentration at which 50% of the maximum induction is seen. More on the design: Peripheral blood mononuclear cells (PBMCs) from human blood were isolated; endogenous in cells; host or cells: human PBMCs. The procedure:
as §1, §2

Where a name gives a salt, the structure may show the parent alone.

As a reminder, the EC50 is the midpoint of the concentration-response curve. As for `CCCN(CCCO)C(=O)C1=Cc2ccc(-c3ccccc3C(=O)OCC)cc2N=C(N)C1` [Compound 204, Ethyl 2-((1E,4E)-2-amino-4-((3-hydroxypropyl)(propyl)carbamoyl)-3H-benzo[b]azepin-8-yl)benzoate], the EC50 on TLR8 was in the range of 0.1 to 1 µM; on TLR7, 1 to 10 µM.

Take `CCCN(CCC)C(=O)C1=Cc2ccc(-c3ccc(C#N)cc3)cc2N=C(N)C1` [Compound 137, (1E,4E)-2-amino-8-(4-cyanophenyl)-N,N-dipropyl-3H-benzo[b]azepine-4-carboxamide]: the values for the EC50 on TLR8 and at TLR7 were 0.001 to 0.1 µM and 10 to 100 µM, respectively.

For `CCCN(CCC)C(=O)C1=Cc2ccc(-c3ccc(C(=O)N(CC)CC)cc3)cc2N=C(N)C1` [Compound 125, (1E,4E)-2-amino-8-(4-(diethylcarbamoyl)phenyl)-N,N-dipropyl-3H-benzo[b]azepine-4-carboxamide], the concentration for a half-maximal effect (EC50) is 0.1 to 1 µM on TLR8 and 1 to 10 µM at TLR7.

As to `CC(C)CN(CC(C)C)C(=O)C1=Cc2ccc(-c3ccc(C(=O)N4CCCC4)cc3)cc2N=C(N)C1` [Compound 103, (1E,4E)-2-amino-N,N-diisobutyl-8-(4-(pyrrolidine-1-carbonyl)phenyl)-3H-benzo[b]azepine-4-carboxamide], the EC50 at TLR8 and on TLR7 was 1 to 10 µM in each case.

As for `CCCN(CCC)C(=O)C1=Cc2ccc(-c3ccncc3)cc2N=C(N)C1` [Compound 134, (1E,4E)-2-amino-N,N-dipropyl-8-(pyridin-4-yl)-3H-benzo[b]azepine-4-carboxamide], the EC50 at TLR8 is 0.1 to 1 µM; on TLR7, 1 to 10 µM.

Take `CCCN(CCOC)C(=O)C1=Cc2ccc(-c3ccc(C(=O)N4CCCC4)cc3)cc2N=C(N)C1` [Compound 119, (1E,4E)-2-amino-N-(2-methoxyethyl)-N-propyl-8-(4-(pyrrolidine-1-carbonyl)phenyl)-3H-benzo[b]azepine-4-carboxamide]: the values for the EC50 at TLR8 and at TLR7 were 0.1 to 1 µM and 1 to 10 µM, respectively.

Regarding `CCCN(CCC)C(=O)C1=Cc2ccc(-c3ccc(C(=O)OC)cc3)cc2N=C(N)C1` [Compound 206, Methyl 4-((1E,4E)-2-amino-4-(dipropylcarbamoyl)-3H-benzo[b]azepin-8-yl)benzoate], the EC50 lay within 0.1 to 1 µM at TLR8 and 1 to 10 µM at TLR7.

Consider `CCCN(CC(C)O)C(=O)C1=Cc2ccc(-c3ccc(C(=O)N4CCCC4)cc3)cc2N=C(N)C1` (centres unmarked) [Compound 104, (1E,4E)-2-amino-N-(2-hydroxypropyl)-N-propyl-8-(4-(pyrrolidine-1-carbonyl)phenyl)-3H-benzo[b]azepine-4-carboxamide], for which the values for the EC50 at TLR8 and at TLR7 were 0.001 to 0.1 µM and 1 to 10 µM, respectively.

As to `CCCN(CCC)C(=O)C1=Cc2ccc(-c3ccc(C(=O)OCC)cc3)cc2N=C(N)C1` [Compound 139, ethyl 4-((1E,4E)-2-amino-4-(dipropylcarbamoyl)-3H-benzo[b]azepin-8-yl)benzoate], the results for the EC50 at TLR8 and on TLR7 were 0.1 to 1 µM and 1 to 10 µM, respectively.

For `CCCN(CCC)C(=O)C1=Cc2ccc(-c3ccccc3C(=O)OCC)cc2N=C(N)C1` [Compound 203, Ethyl 2-((1E,4E)-2-amino-4-(dipropylcarbamoyl)-3H-benzo[b]azepin-8-yl)benzoate], the concentration giving a half-maximal response (EC50) at TLR8 is 0.1 to 1 µM; at TLR7, 1 to 10 µM.

Take `CCCN(CCCO)C(=O)C1=Cc2ccc(-c3ccc(C(=O)N4CCCC4)cc3)cc2N=C(N)C1` [Compound 109, (1E,4E)-2-amino-N-(3-hydroxypropyl)-N-propyl-8-(4-(pyrrolidine-1-carbonyl)phenyl)-3H-benzo[b]azepine-4-carboxamide]: the EC50 fell in the range of 0.001 to 0.1 µM on TLR8 and 1 to 10 µM at TLR7.

For `CCCN(Cc1ccccc1O)C(=O)C1=Cc2ccc(-c3ccc(C(=O)N4CCCC4)cc3)cc2N=C(N)C1` [Compound 174, (1E,4E)-2-amino-N-(2-hydroxybenzyl)-N-propyl-8-(4-(pyrrolidine-1-carbonyl)phenyl)-3H-benzo[b]azepine-4-carboxamide hydrochloride], the results for the EC50 at TLR8 and on TLR7 were 0.1 to 1 µM and 1 to 10 µM, respectively.

`CCCN(CCC)C(=O)C1=Cc2ccc(-c3cccc(O)c3)cc2N=C(N)C1` [Compound 194, (1E,4E)-2-amino-8-(3-hydroxyphenyl)-N,N-dipropyl-3H-benzo[b]azepine-4-carboxamide]: the EC50 lay within 0.1 to 1 µM at TLR8 and 1 to 10 µM at TLR7.

As for `CCCN(CCC)C(=O)C1=Cc2ccc(-c3ccc(C(=O)OCOCC)cc3)cc2N=C(N)C1` [Compound 207, Ethoxymethyl 4-((1E,4E)-2-amino-4-(dipropylcarbamoyl)-3H-benzo[b]azepin-8-yl)benzoate], the EC50 at TLR8 and at TLR7 was 1 to 10 µM in each case.

For the molecule `CCCN(CCC)C(=O)C1=Cc2ccc(-c3ccc(C(=O)N4CCCCC4)cc3)cc2N=C(N)C1` [Compound 126, (1E,4E)-2-amino-8-(4-(piperidine-1-carbonyl)phenyl)-N,N-dipropyl-3H-benzo[b]azepine-4-carboxamide], the values for the EC50 at TLR8 and on TLR7 were 0.1 to 1 µM and 1 to 10 µM, respectively.

Regarding `CCCN(CCC)C(=O)C1=Cc2ccc(-c3ccc(O)cc3)cc2N=C(N)C1` [Compound 195, (1E,4E)-2-amino-8-(4-hydroxyphenyl)-N,N-dipropyl-3H-benzo[b]azepine-4-carboxamide], the EC50 at TLR8 and at TLR7 was 0.1 to 1 µM in each case.

On to `CCCN(CCC)C(=O)C1=Cc2ccc(-c3ccc(C(=O)OCC)c(F)c3)cc2N=C(N)C1` [Compound 210, Ethyl 4-((1E,4E)-2-amino-4-(dipropylcarbamoyl)-3H-benzo[b]azepin-8-yl)-2-fluorobenzoate], for which the EC50 at TLR8 fell in the range of 0.1 to 1 µM; on TLR7, 1 to 10 µM.

Take `NC1=Nc2cc(-c3ccc(C(=O)N4CCCC4)cc3)ccc2C=C(C(=O)N2C[C@@H](O)[C@H](O)C2)C1` [Compound 112, (4-((1E,4E)-2-amino-4-((3R,4R)-3,4-dihydroxypyrrolidine-1-carbonyl)-3H-benzo[b]azepin-8-yl)phenyl)(pyrrolidin-1-yl)methanone]: the EC50 fell in the range of 1 to 10 µM at TLR8 and 10 to 100 µM at TLR7.

For the molecule `CCCN(C[C@H](C)O)C(=O)C1=Cc2ccc(-c3ccc(C(=O)N4CCCC4)cc3)cc2N=C(N)C1` (single isomer, unassigned) [Compound 105], the EC50 at TLR8 is 0.001 to 0.1 µM; on TLR7, 1 to 10 µM.
